The source of these data is US11230717B2, “Plants having increased tolerance to herbicides” (BASF SE, priority 2013, dated 2022).

The structures appear in SMILES notation.

The target in one test is T1, Arabidopsis HPPD (Arabidopsis thaliana, UniProt P93836).
T1 construct: His6 (N); made in house; host or cells: E. coli BL21 (DE3)
T1 sequence (P93836 1-445): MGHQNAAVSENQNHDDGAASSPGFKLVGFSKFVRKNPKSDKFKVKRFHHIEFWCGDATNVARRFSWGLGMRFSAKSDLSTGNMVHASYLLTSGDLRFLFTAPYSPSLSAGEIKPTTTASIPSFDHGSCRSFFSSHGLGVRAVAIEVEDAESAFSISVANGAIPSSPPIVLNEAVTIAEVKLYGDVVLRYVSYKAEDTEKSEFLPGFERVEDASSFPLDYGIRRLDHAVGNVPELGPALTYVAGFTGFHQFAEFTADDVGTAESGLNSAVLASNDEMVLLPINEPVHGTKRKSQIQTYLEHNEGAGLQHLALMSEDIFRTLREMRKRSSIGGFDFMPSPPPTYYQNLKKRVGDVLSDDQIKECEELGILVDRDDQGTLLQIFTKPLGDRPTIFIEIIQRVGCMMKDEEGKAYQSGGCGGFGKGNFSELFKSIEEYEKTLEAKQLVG
As to the kind of experiment: HPPD activity assay (homogentisic acid by HPLC), in vitro characterization. Type of test: biochemical. The protocol:
(§1) HPPD produces homogentisic acid and CO2 from 4-hydroxyphenylpyruvate (4-HPP) and O2. The activity assay for HPPD is based on the analysis of homogentisic acid by reversed phase HPLC.
(§2) The assay mixture can contain 150 mM potassium phosphate buffer pH 7.0, 50 mM L-ascorbic acid, 100 μM Catalase (Sigma-Aldrich), 1 μM FeSO4 and 0.2 units of purified HPPD enzyme in a total volume of 505 μl. 1 unit is defined as the amount of enzyme that is required to produce 1 nmol of HGA per minute at 20° C.
(§3) After a preincubation of 30 min the reaction is started by adding 4-HPP to a final concentration of 0.05 mM. The reaction is allowed to proceed for 45 min at room temperature. The reaction is stopped by the addition of 50 μl of 4.5 M phosphoric acid. The sample is filtered using a […] pore size PVDF filtration device.
(§4) 5 μl of the cleared sample is analyzed on an UPLC HSS T3 column (particle size 1.8 μm, dimensions 2,1×50 mm; Waters) by isocratic elution using 90% 20 mM NaH2PO4 pH 2.2, 10% methanol (v/v).
(§5) HGA is detected electrochemically at 750 mV (mode: DC; polarity: positive) and quantified by integrating peak areas (Empower software; Waters).
(§6) Inhibitors are dissolved in DMSO (dimethylsulfoxide) to a concentration of 0.5 mM. From this stock solution serial five-fold dilutions are prepared in DMSO, which are used in the assay. The respective inhibitor solution accounts for 1% of the assay volume. […] Activities are normalized by setting the uninhibited enzyme activity to 100%. IC50 values are calculated using non-linear regression.
(§7) Using methods which are described in the above examples or well known in the art, purified, recombinant wildtype HPPD enzymes are characterized with respect to their kinetic properties and sensitivity towards HPPD inhibiting herbicides. Apparent michaelis constants (Km) and maximal reaction velocities (Vmax) are calculated by non-linear regression with the software GraphPad Prism 5 (GraphPad Software, La Jolla, USA) using a substrate inhibition model. […] Weighted means (by standard error) of Km and IC50 values are calculated from at least three independent experiments. […] To assess the potential performance of a herbicide tolerance trait a tolerance index (TI) is calculated using the following formula: […]

The target in test [1] is T2, Hordeum HPPD (SEQ ID NO:2) (Hordeum vulgare, UniProt O48604, A164G/R146V/R147D/R148G).
T2 construct: subcloned into a modified pET24D (Novagen) expression vector resulting in N-terminally His-tagged expression constructs; His (N); made in house; host or cells: E. coli BL21 (DE3)
As to the kind of experiment: HPPD activity assay, in vitro characterization. Type of test: biochemical. The protocol:
as §1, §2, §3, §4, §5, §6, §7

Test [2] relates to transgenic Arabidopsis plants. As to the kind of experiment: Greenhouse testing of transgenic Arabidopsis plants (T2), herbicide spray test. The following applies: for Injury evaluation, scale 0-100%: Arabidopsis. The class given is in vivo, Arabidopsis thaliana. The protocol:
Transgenic plants expressing heterologous HPPD or HST enzymes are tested for tolerance against HPPD-inhibiting herbicides in greenhouse experiments.
For post emergence treatment, the test plants are first grown to a height of 3 to 15 cm, depending on the plant habit, and only then treated with the herbicides. For this purpose, the test plants are either sown directly and grown in the same containers, or they are first grown separately and transplanted into the test containers a few days prior to treatment. For testing of T0 plants, cuttings can be used. In the case of soybean plants, an optimal shoot for cutting is about 7.5 to 10 cm tall, with at least two nodes present. Each cutting is taken from the original transformant (mother plant) and dipped into rooting hormone powder (indole-3-butyric acid, IBA). The cutting is then placed in oasis wedges inside a bio-dome. Wild type cuttings are also taken simultaneously to serve as controls. The cuttings are kept in the bio-dome for 5-7 days and then transplanted to pots and then acclimated in the growth chamber for two more days. Subsequently, the cuttings are transferred to the greenhouse, acclimated for approximately 4 days, and then subjected to spray tests as indicated.
Additionally, T1 and T2 transgenic Arabidopsis plants can be tested for improved tolerance to HPPD-inhibiting herbicides in a greenhouse studies. Herbicide injury scoring is done 2-3 weeks after treatment and is rated on a scale of 0 to 100%, 0% being no injury and 100% being complete death.

For orientation: Ki means a dissociation constant, usually derived from enzyme kinetics or from competition with a known ligand. The low end stands for a stronger hold on the target, the high end for a looser hold on the target. As a reminder, the Km is the substrate concentration at which the rate is half of its maximum. A word on the kcat: it is the number of substrate molecules converted per active site and unit of time at saturation.

T2 sequence (O48604 whole entry R146V/R147D/R148G/A164G): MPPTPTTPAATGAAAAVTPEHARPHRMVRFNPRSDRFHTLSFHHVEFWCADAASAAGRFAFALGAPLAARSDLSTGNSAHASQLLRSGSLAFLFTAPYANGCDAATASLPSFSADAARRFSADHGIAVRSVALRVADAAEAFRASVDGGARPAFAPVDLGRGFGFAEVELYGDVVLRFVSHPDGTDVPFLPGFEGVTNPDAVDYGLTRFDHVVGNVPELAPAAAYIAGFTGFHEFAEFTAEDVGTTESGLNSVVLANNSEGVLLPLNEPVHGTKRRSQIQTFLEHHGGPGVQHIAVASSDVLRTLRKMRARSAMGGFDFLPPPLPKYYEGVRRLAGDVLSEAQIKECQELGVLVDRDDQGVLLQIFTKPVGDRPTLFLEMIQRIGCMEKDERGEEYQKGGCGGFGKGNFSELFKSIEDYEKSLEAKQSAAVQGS

In the case of `CSc1c(Cl)cc(F)c(C(=O)Nc2nnnn2C)c1Cl` [Inhibitor 2, 2,4-dichloro-6-fluoro-3-methylsulfanyl-N-(1-methyltetrazol-5-yl)benzamide], the inhibitory constant (Ki) amounted to 20 nM at Arabidopsis HPPD and 11 nM in test [1]. In addition, in test [2] (Arabidopsis HvL320H, P321A, highest rate active ingredient applied), the tolerance factor result is given as “outstanding tolerance factor”. Further, the “tolerance compared to untransformed wild-type control” value in test [2] (Arabidopsis expressing Rhodococcus HPPD (SEQ ID NO:46), highest concentration) is listed as 2 fold. The “Injury evaluation, scale 0-100%” value is on record as 20% in test [2] (transgene AtF381I, 3.125 g/ha, two weeks); 25% in test [2] (transgene AtF381I, 6.25 g/ha, two weeks); 40% in test [2] (transgene AtF381I, 12.5 g/ha, two weeks); 0% in test [2] (transgene AtM335H, P336A, E363Q, 1.56 g/ha, two weeks); 7% in test [2] (transgene AtM335H, P336A, E363Q, 3.125 g/ha, two weeks); 7% in test [2] (transgene AtM335H, P336A, E363Q, 6.25 g/ha, two weeks). Moreover, the “Injury evaluation, scale 0-100%” value in test [2] (transgene AtM335H, P336A, E363Q, 12.5 g/ha, two weeks) is reported as 47%; in test [2] (transgene HvL320H, P321A, 1.56 g/ha, two weeks), 0%; in test [2] (transgene HvL320H, P321A, 3.125 g/ha, two weeks), 5%; in test [2] (transgene HvL320H, P321A, 6.25 g/ha, two weeks) it was 7%; in test [2] (transgene HvL320H, P321A, 12.5 g/ha, two weeks), 8%; in test [2] (transgene HvL320H, 1.56 g/ha, two weeks) it was 0%. The “Injury evaluation, scale 0-100%” value is 12% in test [2] (transgene HvL320H, 3.125 g/ha, two weeks); 18% in test [2] (transgene HvL320H, 6.25 g/ha, two weeks); 33% in test [2] (transgene HvL320H, 12.5 g/ha, two weeks); 86% in test [2] (transgene None, 1.56 g/ha, two weeks after treatment); 87% in test [2] (transgene None, 3.125 g/ha, two weeks after treatment); 98% in test [2] (transgene None, 6.25 g/ha, two weeks after treatment). In addition, the “Injury evaluation, scale 0-100%” value in test [2] (transgene None, 12.5 g/ha, two weeks after treatment) came to 94%; in test [2] (transgene RjHPPD, 1.56 g/ha, two weeks), 2%; in test [2] (transgene RjHPPD, 3.125 g/ha, two weeks) it was 12%; in test [2] (transgene RjHPPD, 6.25 g/ha, two weeks), 13%; in test [2] (transgene RjHPPD, 12.5 g/ha, two weeks) it was 46%.
Take `O=C(O)C(=O)Cc1ccc(O)cc1` [Inhibitor 4-HPP, 4-hydroxyphenylpyruvate, reference compound]: the Km came to 13 µM at Arabidopsis HPPD (Arabidopsis HPPD, apparent michaelis constant, read-out: Km (4-HPP)) and 26 µM in test [1] (Hordeum HPPD, apparent michaelis constant, read-out: Km (4-HPP)). The kcat at Arabidopsis HPPD (Arabidopsis HPPD, turnover number, substrate 4-HPP) was found to be 12.9 s⁻¹; in test [1] (Hordeum HPPD, turnover number, substrate 4-HPP) it was 11.5 s⁻¹.
